Assay results from paper PMC6862080, “Blood Compatibility—An Important but Often Forgotten Aspect of the Characterization of Antimicrobial Peptides for Clinical Application” (International Journal of Molecular Sciences, 2019).
Where two headings read alike, the source gives them in different places. Peptide text beside a SMILES is read from it. * marks the point of attachment. Myristoyl = CCCCCCCCCCCCCC(=O)*

How the values were obtained:
[1] = tested on: E. coli (ATCC 11303); experiment: microbe, parasite or virus in culture; format: cell-based; conditions: for MIC: Escherichia coli
[2] = tested on: S. aureus (ATCC 12600); experiment: microbe, parasite or virus in culture; format: cell-based; conditions: for MIC: Staphylococcus aureus
[3] = tested on: all species of Enterobacteriaceae and Staphylococcus; conditions: against all species of Enterobacteriaceae and Staphylococcus; cited from earlier work
Protocol: It is noticeable that the MIC decreases with increasing acylation length of the peptide (Table 1). The antimicrobial effect of the LF11-322 peptides against E. coli and S. aureus decreased when the MIC was tested in 4% HSA solution. This is probably due to the partial binding of AMPs to albumin.

[4] = tested on: platelets; experiment: SEM imaging of platelet morphology in PRP; format: cell-based, human; conditions: 128 μg/mL, 2 h, 37 °C
Protocol: (§1) Since it was observed that some AMPs are able to activate the plasmatic coagulation system of heparinized and citrate anticoagulated blood, the influence of this peptides on platelets was investigated. For this purpose, fresh heparinized and citrated blood were collected from three donors. The blood was centrifuged at 500 g for 5 min and platelet rich plasma (PRP) was obtained. The PRP was incubated at 37 °C for 2 h with 128 μg/mL AMP, PMB, and LL-37. PRP without any additives served as the control. After incubation, the platelet number was determined by a Sysmex Automated Hematology Analyzer KX-21-N (Kobe, Japan). In addition, the PRP samples were prepared for SEM to visualize the morphology of the thrombocytes. After incubation, 10 μL PRP were diluted with 990 μL PBS (0.01 M) and filtered through a 0.2 μm membrane (Membrane Filter Isopore 0.2 μm, Merck, Darmstadt, Germany). The platelets were retained on the membrane, washed with 1 mL PBS, and fixed with 1 mL glutaraldehyde solution (2.5% glutaraldehyde in physiological saline solution). After an incubation time of 60 min, the samples were dehydrated using a series of ethanol (30%, 50%, 60%, 70%, 80%, 90%, and 100%). Afterwards the samples were dried overnight at RT, sputtered with gold and visualized with a scanning electron microscope (FLEXSem 1000, Hitachi, Japan).

[5] = tested on: erythrocyte membranes; experiment: Hemolysis in RBC suspended in PBS (Kahn method); format: cell-based, human
Protocol: (§2) Hemolysis was tested with fresh citrate anticoagulated blood from healthy volunteers as well as with blood cells which were suspended in phosphate buffered saline (10 mM pH 7.4). Afterwards, 100 μL AMP solution was added to 500 μL blood to finally achieve AMP concentrations of 8, 32, and 128 μg/mL. As the negative and positive control, 100 μL PBS buffer and 100 μL 12% Triton-X buffer was added to 500 μL blood, respectively. After incubation on an orbital shaker for 60 min at 37 °C, the cells were removed by centrifugation and 100 μL of the supernatant were transferred to a 96 well microplate for hemolysis measurement. The hemolysis was calculated from the extinction at the wavelengths 562, 578, and 598 nm with a Synergy 2 microplate reader (BioTek, Winooski, VT, USA) according to the method published by Kahn.

[6] = tested on: human leukocytes; experiment: Cytotoxicity on leukocytes in whole blood, flow cytometry (7-AAD); format: cell-based; conditions: citrate anticoagulated whole blood, 128 μg/mL, 37 °C, 120 min / 60 min, CD45, flow cytometry, n = 3
Protocol: The measurement of the membrane destabilization of leukocytes by AMPs was carried out by flow cytometry. […] Whole blood without AMPs or antibiotics was used as a control. After incubation, the proportion of apoptotic and dead cells was determined by flow cytometry. To achieve this, blood samples were diluted 1:100 with 0.01 M phosphate buffered saline and centrifuged at 300 g for 10 min. The supernatant was removed, and cells were stained with 10 μL CD45 pacific blue (leukocyte marker; Beckman coulter, Brea, CA) and 10 μL 7-AAD (a marker for dead cells; Sigma-Aldrich, Steinheim, Germany) for 15 min at room temperature in the dark. After incubation, 1.8 mL lysis buffer (1:10 dilution in distilled water) was added, mixed, and incubated for 10 min at room temperature in the dark. This was followed by two washing steps (2300 g, 5 min, room temperature) and the cells were resuspended in a final volume of 200 μL 0.01 M PBS for measurement. Flow cytometry was performed using a Gallios flow cytometer (Beckman Coulter, Brea, CA, USA) equipped with 405 nm, 488 nm, and 638 nm lasers and the Kaluza Analysis Software (Beckman Coulter, Brea, CA, USA), which was used for measurement and data analysis. Blood cells which were incubated in 70% methanol before staining served as the positive control and blood cells without any additives were used as the negative control.

[7] = tested on: platelets; experiment: Platelet activation, platelet count in heparin anticoagulated PRP; format: cell-based, human; conditions: 128 μg/mL, 2 h, 37 °C, Sysmex analyzer, n = 3
Protocol: as §1

[8] = tested on: platelets; experiment: Platelet activation, platelet count in citrate anticoagulated PRP; format: cell-based, human; conditions: 128 μg/mL, 2 h, 37 °C, Sysmex analyzer, n = 3
Protocol: as §1

[9] = tested on: erythrocyte membranes; experiment: Hemolysis in whole blood (Kahn method); format: cell-based, human
Protocol: as §2

[10] = tested on: plasmatic coagulation; experiment: Clotting batch test in citrate plasma; format: biochemical, human; for Clotting of citrate plasma, Peptide Concentration 128 μg/mL: key: −: no clotting observed, no D-dimers and normal fibrinogen level; +: clotting observed, high D-dimer level, no detectable fibrinogen serum level; for Clotting of citrate plasma, Peptide Concentration 256 μg/mL: key: −: no clotting observed, no D-dimers and normal fibrinogen level; +: clotting observed, high D-dimer level, no detectable fibrinogen serum level; for Clotting of citrate plasma, Peptide Concentration 32 μg/mL: key: −: no clotting observed, no D-dimers and normal fibrinogen level; +: clotting observed, high D-dimer level, no detectable fibrinogen serum level; for Clotting of citrate plasma, Peptide Concentration 8 μg/mL: key: −: no clotting observed, no D-dimers and normal fibrinogen level; +: clotting observed, high D-dimer level, no detectable fibrinogen serum level
Protocol: Since the acylated LF11-322 peptides cause plasmatic coagulation of citrate anticoagulated plasma, separate clotting experiments were performed with this peptide group. The aim was to check whether the coagulation activation is dependent on the AMP concentration and on the acyl chain length. […] Plasma without additives served as the negative control, whereas plasma spiked with CaCl2/MgCl2 (500/250 mM) solution to restore the physiological calcium and magnesium level in plasma was used as the positive control. Incubation was performed at 37 °C for 60 min. […] In order to ensure that the measured turbidity of the plasma is caused by fibrin formation, the fibrinogen and D-Dimer concentrations were additionally determined. During plasmatic clotting, the fibrinogen level decreases and the D-Dimer level in serum increases. Both were analyzed on a Sysmex CA560 with the corresponding reagents (Siemens Healthineers, Erlangen, Germany).

[11] = tested on: plasmatic coagulation; experiment: Activation of the clotting cascade in citrated plasma; conditions: citrated (17 mM) plasma, 128 μg/mL, 37 °C, 120 min, turbidity at 600 nm
Protocol: (§3) Plasma spiked with MES buffer without AMP was used as the negative control. […] Samples were incubated at 37 °C for 120 min. Coagulation was determined by turbidity measurement at 600 nm using a well plate reader.

[12] = tested on: plasmatic coagulation; experiment: Activation of the clotting cascade in heparinized plasma; conditions: heparinized (0.5 IU/mL) plasma, 128 μg/mL, 37 °C, 120 min, turbidity at 600 nm
Protocol: as §3

[13] = citrate plasma, 37 °C, 60 min, turbidity 600 nm, fibrinogen and D-Dimer

O=C(O)c1cn(C2CC2)c2cc(N3CCNCC3)c(F)cc2c1=O [Ciprofloxacin, reference compound]
MIC ([1]; ATCC11303, pH 7.4, read-out: Minimal Inhibitory Concentration, E. coli, PBS): < 0.0625 µg/mL
MIC ([1]; ATCC11303, read-out: Minimal Inhibitory Concentration, E. coli, PBS + heparin): < 0.0625 µg/mL
MIC ([2]; ATCC12600, pH 7.4, read-out: Minimal Inhibitory Concentration, S. aureus, PBS): < 0.0625 µg/mL
MIC ([2]; ATCC12600, read-out: Minimal Inhibitory Concentration, S. aureus, PBS + heparin): < 0.0625 µg/mL
MIC90 [3]: < 1 µg/mL

CCCCCCCCCCCCCC(=O)N1CCC[C@H]1C(=O)N[C@@H](Cc1ccccc1)C(=O)N[C@@H](Cc1c[nH]c2ccccc12)C(=O)N[C@@H](CCCNC(=N)N)C(=O)N[C@H](C(=O)N[C@@H](CCCNC(=N)N)C(=O)N[C@H](C(=O)N[C@@H](CCCNC(=N)N)C(=O)N[C@@H](CCCNC(=N)N)C(N)=O)[C@@H](C)CC)[C@@H](C)CC [LF11-322-C14] (Myristoyl-PFWRIRIRR-NH2)
Minimal Inhibitory Concentration, E. coli, PBS ([1]; ATCC 11303, pH 7.4): 64 µg/mL
Minimal Inhibitory Concentration, S. aureus, PBS ([2]; ATCC 12600, pH 7.4): 8 µg/mL
Platelet morphology by SEM, citrate anticoagulated PRP (in words) [4]: hardly any intact platelets left
Free Hemoglobin, RBC in PBS, 8 μg/mL ([5]; pH 7.4): 12.9 ± 1.2 mg/dL
Free Hemoglobin, RBC in PBS, 32 μg/mL ([5]; pH 7.4): 31.8 ± 3.14 mg/dL
Percentage of dead leukocytes [6]: 21 ± 16%
Platelet count in heparinized PRP vs control (in words) [7]: no significant difference in platelet count
Platelet count in citrate anticoagulated PRP vs control (in words) [8]: significantly reduce the platelet count
Free Hemoglobin, BLOOD, 8 μg/mL [9]: 2.9 ± 3.4 mg/dL
Free Hemoglobin, BLOOD, 32 μg/mL [9]: 5.4 ± 3.2 mg/dL
Free Hemoglobin, BLOOD, 128 μg/mL [9]: 2.9 ± 4.2 mg/dL
Peptide concentration that triggers clotting of citrate plasma [10]: ≥ 32 µg/mL

CC[C@H](C)[C@H](NC(=O)[C@H](CCCCN)NC(=O)[C@H](CCC(=O)O)NC(=O)[C@H](CCCCN)NC(=O)[C@H](CO)NC(=O)[C@H](CCCCN)NC(=O)[C@H](CCCNC(=N)N)NC(=O)[C@H](Cc1ccccc1)NC(=O)[C@H](Cc1ccccc1)NC(=O)[C@H](CC(=O)O)NC(=O)CNC(=O)[C@H](CC(C)C)NC(=O)[C@@H](N)CC(C)C)C(=O)NCC(=O)N[C@@H](CCCCN)C(=O)N[C@@H](CCC(=O)O)C(=O)N[C@@H](Cc1ccccc1)C(=O)N[C@@H](CCCCN)C(=O)N[C@@H](CCCNC(=N)N)C(=O)N[C@H](C(=O)N[C@H](C(=O)N[C@@H](CCC(N)=O)C(=O)N[C@@H](CCCNC(=N)N)C(=O)N[C@H](C(=O)N[C@@H](CCCCN)C(=O)N[C@@H](CC(=O)O)C(=O)N[C@@H](Cc1ccccc1)C(=O)N[C@@H](CC(C)C)C(=O)N[C@@H](CCCNC(=N)N)C(=O)N[C@@H](CC(N)=O)C(=O)N[C@@H](CC(C)C)C(=O)N[C@H](C(=O)N1CCC[C@H]1C(=O)N[C@@H](CCCNC(=N)N)C(=O)N[C@H](C(=O)N[C@@H](CCC(=O)O)C(=O)N[C@@H](CO)C(=O)O)[C@@H](C)O)C(C)C)[C@@H](C)CC)C(C)C)[C@@H](C)CC [LL-37, reference compound]
Free Hemoglobin, RBC in PBS, 128 μg/mL ([5]; blood cells suspended in PBS 10 mM pH 7.4, highest peptide conc., 60 min 37 °C, Kahn method, n = 3, control 8.5 ± 4.7): 68.4 ± 15.0 mg/dL
Free Hemoglobin, RBC in PBS, 8 μg/mL ([5]; blood cells suspended in PBS 10 mM pH 7.4, peptide conc. 8 μg/mL, 60 min 37 °C, Kahn method, n = 3, control 8.5 ± 4.7): 2.4 ± 3.6 mg/dL
Free Hemoglobin, RBC in PBS, 32 μg/mL ([5]; blood cells suspended in PBS 10 mM pH 7.4, peptide conc. 32 μg/mL, 60 min 37 °C, Kahn method, n = 3, control 8.5 ± 4.7): 44.8 ± 17.7 mg/dL
Plasma clot, Citrated Plasma [11]: −
Free Hemoglobin, BLOOD, 8 μg/mL ([9]; citrate anticoagulated whole blood, peptide conc. 8 μg/mL, 60 min 37 °C, Kahn method, n = 3, control 3.7 ± 1.9): 1.1 ± 0.7 mg/dL
Free Hemoglobin, BLOOD, 32 μg/mL ([9]; citrate anticoagulated whole blood, peptide conc. 32 μg/mL, 60 min 37 °C, Kahn method, n = 3, control 3.7 ± 1.9): 9.4 ± 13.4 mg/dL
Free Hemoglobin, BLOOD, 128 μg/mL ([9]; citrate anticoagulated whole blood, peptide conc. 128 μg/mL, 60 min 37 °C, Kahn method, n = 3, control 3.7 ± 1.9): 2.6 ± 3.7 mg/dL
Clotting of citrate plasma, Peptide Concentration 8 μg/mL [10, 13]: −
Clotting of citrate plasma, Peptide Concentration 32 μg/mL [10, 13]: −
Clotting of citrate plasma, Peptide Concentration 128 μg/mL [10, 13]: −
Clotting of citrate plasma, Peptide Concentration 256 μg/mL [10, 13]: −
Plasma clot, Heparin Plasma [12]: −
